In patent US20050163849A1 (priority 2003, published 2005):

Test: Intracolonic ligated model, lower G.I. absorption and bioavailability of iron-transport moiety complexes
Conditions: rat, intracolonic bolus into ligated colon, 10 mg iron/rat
Method: Absorption of the complexes is evaluated from blood samples taken from the animal as a function of time after intubation. A rise in the hematocrit level in the blood is indicative of absorption.
A segment of proximal colon is isolated and the colon is flushed of fecal materials. […] The colonic contents are flushed out and the colon is returned to the abdomen of the animal.
At the end of the 4 hour test period, the rats are euthanized with an overdose of pentobarbital. Colonic segments from each rat are excised and opened longitudinally along the anti-mesenteric border. Each segment is observed macroscopically for irritation and any abnormality noted. The excised colons are placed on graph paper and measured to approximate colonic surface area.

ferrous laurate [ferrous-laurate complex]
Increased absorption relative to ferrous sulfate (change in hematocrit level): at least two-fold
